Experimental data taken from patent publication US9375000B2, “Pesticidal arylpyrrolidines” (Bayer Intellectual Property GmbH, priority 2011, dated 2016).

How the values were obtained:
Assay type in all cases: in vivo
[1] = tested on: Two-Spotted Spider Mite (Tetranychus urticae); experiment: Two-spotted spider mite (Tetranychus urticae) spray test on kidney bean; conditions: after 7 days
Experimental: (§1) Unless not mentioned otherwise, the test solutions were prepared as follows:
(§2) Solvent: 3 parts by weight Dimethylformamide
(§3) Emulsifier: 1 part by weight Polyoxyethylene alkyl phenyl ether
(§4) In order to make an appropriate formulation of an active compound, 1 part by weight of the active compound is mixed with the above mentioned amount of solvent and emulsifier and the mixture is diluted with water to a prescribed concentration. Ammonium salt or ammonium salt and penetration enhancer in a dosage of 1000 ppm are added to the desired concentration if necessary.
50 to 100 adult mites of Tetranychus urticae were inoculated to leaves of kidney bean at two-leaf stage planted in a pot of 6 cm in diameter. After one day, test solution at the appropriate concentration was sprayed thereon in a sufficient amount using a spray gun. After the spraying, the plant pot was placed inside a greenhouse, and after 7 days, the acaricidal activity was calculated. An acaricidal activity of 100% means that all mites were killed, whereas an acaricidal activity of 0% means that no mite was killed.

[2] = tested on: Cucurbit Leaf Beetle (Aulacophora femoralis); experiment: Cucurbit leaf beetle (Aulacophora femoralis) cucumber leaf dip test; conditions: after 7 days
Experimental: as §1, §2, §3, §4
Leaves of cucumber were immersed in the test solution at the appropriate concentration, and the leaves were dried in air. The leaves were then put in a plastic cup containing sterilized black soil and five Aulacophora femoralis at second instar larvae were released in the cup. The cups were placed in a temperature-controlled chamber at 25° C. After 7 days, the number of dead larvae was counted, and thus the insecticidal activity was calculated. An insecticidal activity of 100% means that all larvae were killed, whereas an insecticidal activity of 0% means that no larva was killed.

[3] = tested on: Larvae of Spodoptera litura; experiment: Larvae of Spodoptera litura, method using artificial feeds; conditions: artificial feed, after 7 days
Experimental: as §1, §2, §3, §4
[A Method Using Artificial Feeds (Trade Name: Insecta LFM, Manufactured by Nosan Corporation)]
Powdery artificial feeds (2.3 g) were added to a plastic cup (diameter: 7.5 cm, height: 4 cm) to achieve a certain thickness. Water-diluted liquid (5 ml) of the active compound prepared above having predetermined concentration was evenly poured thereto and allowed to stand until the feeds were solidified. Five of the 3rd-instar larvae of Spodoptera litura were released in respective cups, and covered. The cups were put in a temperature controlled room at 25° C. and humidity of 50 to 60%, and the number of dead larvae after 7 days was determined to calculate the pesticidal ratio. 100% pesticidal ratio means death of all the larvae, while 0% pesticidal ratio means no dead larvae.

[4] = active compound concentration 20 ppm
[5] = active compound concentration 4 ppm

Structure (SMILES)	acaricidal activity [1, 4] [%]	insecticidal activity [2, 4] [%]	insecticidal activity (pesticidal ratio) [3, 4] [%]	insecticidal activity [2, 5] [%]	insecticidal activity (pesticidal ratio) [3, 5] [%]	acaricidal activity [1, 5] [%]
O=C(NCc1ccc(N2CCC(c3cc(Cl)cc(C(F)(F)F)c3)(C(F)(F)F)C2O)cc1C(F)(F)F)C1CC1 (centres unmarked) [A1-341]	100	100	100	–	–	–
C[S+]([O-])CC(=O)NCc1ccc(N2CCC(c3cc(C(F)(F)F)cc(C(F)(F)F)c3)(C(F)(F)F)C2O)nc1Br (mixture of isomers) [A3-164]	98	100	100	100	100	–
Cc1nc(N2CCC(c3cc(C(F)(F)F)cc(C(F)(F)F)c3)(C(F)(F)F)C2O)ccc1CNC(=O)CC(F)(F)F (centres unmarked) [A3-128]	100	100	100	–	–	–
CCC(=O)NCc1ccc(N2CCC(c3cc(C(F)(F)F)cc(C(F)(F)F)c3)(C(F)(F)F)C2O)cc1F (mixture of isomers) [A1-206]	100	100	100	–	–	–
O=C(CC(F)(F)F)NCc1ccc(N2CCC(c3cc(Cl)cc(Cl)c3)(C(F)(F)F)C2O)cc1C(F)(F)F (centres unmarked) [A1-40]	100	100	100	–	–	–
CCC(=O)NCc1ccc(N2CCC(c3cc(Cl)cc(C(F)(F)F)c3)(C(F)(F)F)C2O)nc1C(F)(F)F (mixture of isomers) [A3-266]	100	100	100	–	–	–
CCC(=O)NCc1ccc(N2CCC(c3cc(Cl)c(Cl)c(Cl)c3)(C(F)(F)F)C2O)cc1F (mixture of isomers) [A1-151]	100	100	100	–	–	–
O=C(NCc1ccc(N2CCC(c3cccc(C(F)(F)F)c3)(C(F)(F)F)C2O)cc1C(F)(F)F)C1CC1 (racemic) [A1-297]	100	100	100	–	–	–
CCC(=O)NCc1ccc(N2CCC(c3cc(Cl)cc(Cl)c3F)(C(F)(F)F)C2O)cc1C(F)(F)F (centres unmarked) [A1-406]	–	–	–	100	100	100
CS(=O)(=O)CC(=O)NCc1ccc(N2CCC(c3cc(Cl)c(Cl)c(Cl)c3)(C(F)(F)F)C2O)nc1C(F)(F)F (centres unmarked) [A3-22]	100	100	100	–	–	–
C[S+]([O-])CC(=O)NCc1cnc(N2CCC(c3cc(Cl)c(Cl)c(Cl)c3)(C(F)(F)F)C2O)nc1C(F)(F)F (centres unmarked) [A4-21]	100	100	100	–	–	–
O=C(NCc1ccc(N2CCC(c3cc(Cl)cc(C(F)(F)F)c3)(C(F)(F)F)C2O)nc1C(F)(F)F)C1CC1 (mixture of isomers) [A3-269]	100	100	100	–	–	–
O=C(NCc1ccc(N2CCC(c3cc(Cl)cc(Cl)c3)(C(F)(F)F)C2O)cc1C(F)(F)F)C1CC1 (centres unmarked) [A1-38]	100	100	100	–	–	–
O=C(CC(F)(F)F)NCc1ccc(N2CCC(c3cc(Cl)c(Cl)c(Cl)c3)(C(F)(F)F)C2O)cc1C(F)(F)F (centres unmarked) [A1-51]	100	100	100	–	–	–
Cc1nc(N2CCC(c3cc(Cl)c(Cl)c(Cl)c3)(C(F)(F)F)C2O)ccc1CNC(=O)C1CC1 (centres unmarked) [A3-82]	100	100	100	–	–	–
CC(=O)NCc1ccc(N2CCC(c3cc(C(F)(F)F)cc(C(F)(F)F)c3)(C(F)(F)F)C2O)nc1C(F)(F)F (centres unmarked) [A3-23]	100	100	100	–	–	–
